Source: patent EP0524718A1, “Polyurethane hydrogel compositions for iontophoretic drug delivery” (GENSIA PHARMACEUTICALS, INC., priority 1991, dated 1993)

Experiment: Drug stability in hydrogel matrix electrode pads (isocratic HPLC assay)
Format: physicochemical
Details: in Hypol Hydrogel matrix, room temperature and 4°C, after six months
Protocol: Stability of Arbutamine in electrode pads using the hydrogel matrix prepared from Hypol Hydrogel prepolymer was studied using the 3M Red Dot™ Electrode Construction. […] The matrix incorporating the drug was placed in the 3M Red Dot electrode (after removing the gel supplied with the electrode). The electrode was secured in an aluminum pouch with or without a nitrogen flush (as noted). Drug stability studies were carried out at room temperature and 4°C.

drug degradation: no significant drug degradation
SMILES: Cl.Oc1ccc(CCCCNCC(O)c2ccc(O)c(O)c2)cc1 (stereo not shown) [Arbutamine, 1-(3,4-dihydroxyphenyl)-2-(4-(4-hydroxyphenyl)butylamino)ethanol hydrochloride]
